This passage reports IC50 results from US8476261B2, “Spirocyclic aminoquinolones as GSK-3 inhibitors” (Kyorin Pharmaceutical Co., Ltd., priority 2007, dated 2013).

This experiment concerns the target T1, recombinant full-length human GSK3β (Homo sapiens, UniProt P49841).
T1 construct: recombinant full-length human GSK3β (Upstate); purchased Upstate
Kind of experiment: cell-free GSK3 kinase assay (KinaseGlo luciferase). Format: biochemical. The conditions noted are these: Table 1; 5 μM ATP, 1 hour at 30 degrees Celsius. On the procedure: Proceed to KinaseGlo luciferase reaction.
Following the completion of the kinase reaction an equal volume of KinaseGlo luciferase reagent (Promega) is added and the luminescence read using a luminescence plate reader within 5-10 minutes.
For orientation: Kinase-Glo measures the ATP left after a reaction by luminescence.

Some results are limits rather than exact numbers.

T1 sequence (P49841 whole entry): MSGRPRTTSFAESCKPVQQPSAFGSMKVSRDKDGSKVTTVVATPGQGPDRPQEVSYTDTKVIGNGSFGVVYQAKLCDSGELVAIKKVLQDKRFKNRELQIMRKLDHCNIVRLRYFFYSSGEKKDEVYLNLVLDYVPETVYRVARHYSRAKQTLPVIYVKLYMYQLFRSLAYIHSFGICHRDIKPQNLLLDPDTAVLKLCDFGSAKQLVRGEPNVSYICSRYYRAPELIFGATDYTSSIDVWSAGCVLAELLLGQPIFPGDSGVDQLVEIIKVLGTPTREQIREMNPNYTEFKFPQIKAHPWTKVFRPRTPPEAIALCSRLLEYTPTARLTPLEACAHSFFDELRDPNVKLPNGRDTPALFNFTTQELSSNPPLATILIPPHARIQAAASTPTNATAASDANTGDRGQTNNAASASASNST

For orientation: IC50 means the concentration needed to halve the response being measured. `CC(C)c1ccc(OCCNc2c(F)c(N)c3c(=O)c(C(=O)O)cn4c3c2OCC42CCCC2)cc1` [Compound 67]: the IC50 was over 150 nM.

`Nc1c(F)c(NCCNC(=O)c2ccccn2)c2c3c1c(=O)c(C(=O)O)cn3C1(CCCC1)CO2` [Compound 68]: the IC50 fell in the range of 16 to 60 nM.

As for `COc1cccc(CCCNc2c(F)c(N)c3c(=O)c(C(=O)O)cn4c3c2OCC42CCCC2)c1` [Compound 69], the IC50 is under 15 nM.

Consider `Nc1c(F)c(NCCCn2cnc3ccccc32)c2c3c1c(=O)c(C(=O)O)cn3C1(CCCC1)CO2` [Compound 70], for which the IC50 was under 15 nM.

In the case of `Nc1c(F)c(NCCN2CCC(c3ccccc3)C2)c2c3c1c(=O)c(C(=O)O)cn3C1(CCCC1)CO2` (stereo not drawn) [Compound 71], the IC50 was over 150 nM.

With `Nc1c(F)c(NCCC(c2ccccc2)c2ccc3c(c2)OCO3)c2c3c1c(=O)c(C(=O)O)cn3C1(CCCC1)CO2` (stereo not drawn) [Compound 72], the concentration for half-maximal inhibition (IC50) is over 150 nM.

On to `CC(COc1ccc(Cl)cc1)Nc1c(F)c(N)c2c(=O)c(C(=O)O)cn3c2c1OCC31CCCC1` (stereo not drawn) [Compound 74], for which the IC50 was over 150 nM.

Turning to `Nc1c(F)c(NCCOc2ccc(-c3ccccc3)cc2)c2c3c1c(=O)c(C(=O)O)cn3C1(CCCC1)CO2` [Compound 75], the half-maximal inhibitory concentration (IC50) was over 150 nM.

On to `Nc1c(F)c(NCCSc2nc3ccccc3[nH]2)c2c3c1c(=O)c(C(=O)O)cn3C1(CCCC1)CO2` [Compound 76], for which the IC50 is over 150 nM.

As to `Nc1c(F)c(N[C@H]2CC[C@H](n3ccnc3)C2)c2c3c1c(=O)c(C(=O)O)cn3C1(CCCC1)CO2` [Compound 77], the concentration for half-maximal inhibition (IC50) is under 15 nM.

For the compound `Nc1c(F)c(N[C@H]2CC[C@H](c3ccccn3)C2)c2c3c1c(=O)c(C(=O)O)cn3C1(CCCC1)CO2` [Compound 78], the half-inhibitory concentration (IC50) is under 15 nM.

Take `Nc1c(F)c(N[C@@H]2CC[C@H](c3ccccn3)C2)c2c3c1c(=O)c(C(=O)O)cn3C1(CCCC1)CO2` [Compound 79]: the concentration for half-maximal inhibition (IC50) was over 150 nM.

For the compound `Nc1c(F)c(NCCCc2ccncc2)c2c3c1c(=O)c(C(=O)O)cn3C1(CCCC1)CO2` [Compound 80], the half-inhibitory concentration (IC50) was under 15 nM.

On to `N#Cc1ccc(CCCNc2c(F)c(N)c3c(=O)c(C(=O)O)cn4c3c2OCC42CCCC2)nc1` [Compound 81], for which the IC50 is under 15 nM.

For the compound `Nc1c(F)c(NCCNc2ccccn2)c2c3c1c(=O)ccn3C1(CCC1)CCO2` [Compound 82], the half-maximal inhibitory concentration (IC50) is 16 to 60 nM.

`Nc1c(F)c(NCCCc2ccccn2)c2c3c1c(=O)ccn3C1(CCC1)CCO2` [Compound 83]: the concentration for half-maximal inhibition (IC50) is 61 to 150 nM.

`Nc1c(F)c(NCCCn2ccnc2)c2c3c1c(=O)ccn3C1(CCC1)CCO2` [Compound 84]: the IC50 was under 15 nM.

For the compound `Nc1c(F)c(NCCCc2ccccn2)c2c3c1c(=O)ccn3C1(CCCC1)CO2` [Compound 85], the 50% inhibitory concentration (IC50) lay within 16 to 60 nM.

With `NC(=O)c1cn2c3c(c(NCCNc4ccccn4)c(F)c(N)c3c1=O)OCCC21CCC1` [Compound 86], the 50% inhibitory concentration (IC50) was under 15 nM.

For the compound `NNC(=O)c1cn2c3c(c(NCCNc4ccccn4)c(F)c(N)c3c1=O)OCCC21CCC1` [Compound 88], the IC50 is under 15 nM.

As to `Nc1c(F)c(NCCNc2ccccn2)c2c3c1c(=O)c(C(=O)NO)cn3C1(CCC1)CCO2` [Compound 89], the concentration for half-maximal inhibition (IC50) was under 15 nM.

Take `CNC(=O)c1cn2c3c(c(NCCNc4ccccn4)c(F)c(N)c3c1=O)OCCC21CCC1` [Compound 90]: the IC50 is over 150 nM.

In the case of `N#Cc1cn2c3c(c(NCCNc4ccccn4)c(F)c(N)c3c1=O)OCCC21CCC1` [Compound 91], the half-maximal inhibitory concentration (IC50) was in the range of 16 to 60 nM.

Take `N#Cc1cn2c3c(c(NCCCn4ccnc4)c(F)c(N)c3c1=O)OCCC21CCC1` [Compound 93]: the half-maximal inhibitory concentration (IC50) lay within 16 to 60 nM.

`Cc1c(C(=O)O)c(=O)c2c(N)c(F)c(NCCNc3ccccn3)c3c2n1C1(CCC1)CCO3` [Compound 94]: the concentration for half-maximal inhibition (IC50) is 16 to 60 nM.

Regarding `Nc1c(Cl)c(NCCNc2ccccn2)c2c3c1c(=O)c(C(=O)O)cn3C1(CCC1)CCO2` [Compound 95], the half-maximal inhibitory concentration (IC50) was 61 to 150 nM.

For `Nc1c(F)c(NCCCn2ccnc2)c2c3c1c(=O)c(C(=O)O)cn3C1(CCCC1)CO2` [Compound 96], the IC50 is under 15 nM.

As to `Nc1c(F)c(NCCCn2ccnc2)c2c3c1c(=O)c(C(=O)O)cn3C1(CCC1)CCO2` [Compound 97], the IC50 fell in the range of 16 to 60 nM.

`Nc1c(F)c(N2CCC(Nc3ccccn3)C2)c2c3c1c(=O)c(C(=O)O)cn3C1(CCCC1)CO2` (stereo not drawn) [Compound 98]: the 50% inhibitory concentration (IC50) was over 150 nM.

As to `Cc1cc(=O)c2c(N)c(F)c(NCCNc3ccccn3)c3c2n1C1(CCC1)CCO3` [Compound 99], the IC50 is over 150 nM.
